Consider 4 molecules from PubChem BioAssay (NCI).

Among the test systems are U251 CNS; HCT-116 colon; SNB-75 CNS; SK-MEL-28 melanoma; SF-295 CNS; HOP-92 NSCLC; IGROV1 ovarian; COLO 205 colon; HL-60(TB) leukemia; HOP-62 NSCLC.
Assay in all cases: NCI anticancer screen, dose series, 48 h

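Growth conditions: 96-well plates. Treatment: test compound, 48 hours, 5 concentrations. Analysis: linear interpolation between bracketing concentrations; unreached endpoints set to highest concentration. GI50 marks 50% less growth. TGI marks complete inhibition of growth.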 Where only a bound is given, the exact number is not on record here.

`O=C(Nc1n[nH]c2nc(-c3ccco3)ccc12)C1CC1`: the GI50 in the assay with U251 CNS was more than 25 µM; in the assay with HCT-116 colon, more than 25 µM; with SNB-75 CNS, more than 25 µM; in the assay on SK-MEL-28 melanoma, more than 25 µM; in the assay on SF-295 CNS it was more than 25 µM; in the assay with HOP-92 NSCLC, more than 7.9 µM. Besides, the GI50 with IGROV1 ovarian, with COLO 205 colon, in the assay on HL-60(TB) leukemia and with HOP-62 NSCLC was more than 25 µM throughout. Besides, the TGI is more than 25 µM in the assay with U251 CNS; more than 25 µM in the assay with HCT-116 colon; more than 25 µM in the assay with SNB-75 CNS; more than 25 µM with SK-MEL-28 melanoma; more than 25 µM in the assay on SF-295 CNS; more than 7.9 µM in the assay on HOP-92 NSCLC. Besides, the TGI in the assay with IGROV1 ovarian, in the assay on COLO 205 colon, with HL-60(TB) leukemia and with HOP-62 NSCLC was more than 25 µM in each case.

On to `COc1ccc(/C=C2\CN(Cc3cn(CCCNc4ccnc5cc(Cl)ccc45)nn3)C/C(=C\c3ccc(OC)c(OC)c3)C2=O)cc1OC`, for which the GI50 was 1.19 µM in the assay on U251 CNS; 0.577 µM with HCT-116 colon; 1.71 µM with SNB-75 CNS; 2.42 µM with SK-MEL-28 melanoma; 2.08 µM with SF-295 CNS; 1.45 µM with HOP-92 NSCLC. The GI50 with IGROV1 ovarian was 1.05 µM; in the assay on COLO 205 colon, 1.03 µM; in the assay with HL-60(TB) leukemia, 0.685 µM; with HOP-62 NSCLC, 2.42 µM. The TGI in the assay on U251 CNS worked out at 3.88 µM; in the assay on HCT-116 colon, 2.1 µM; in the assay with SNB-75 CNS, 6.09 µM; with SK-MEL-28 melanoma it was 8.7 µM; with SF-295 CNS, 4.1 µM; in the assay with HOP-92 NSCLC it was 5.19 µM. Also, the TGI in the assay with IGROV1 ovarian was determined as 2.41 µM; in the assay on COLO 205 colon it was 2.39 µM; in the assay on HL-60(TB) leukemia, 4.03 µM; in the assay on HOP-62 NSCLC, 4.54 µM.

Turning to `O=c1cc(-c2ccc(Cl)cc2)[nH]c2ncccc12`, the TGI in the assay on U251 CNS, in the assay on HCT-116 colon, in the assay on SNB-75 CNS, with SK-MEL-28 melanoma, in the assay with SF-295 CNS and with HOP-92 NSCLC was more than 100 µM each time. For the same molecule, the TGI with IGROV1 ovarian is more than 100 µM; in the assay on COLO 205 colon it was 83 µM; in the assay on HL-60(TB) leukemia, 41.6 µM; in the assay with HOP-62 NSCLC, more than 100 µM. Besides, the GI50 with HCT-116 colon was 32.1 µM; in the assay on SF-295 CNS, 40.7 µM; in the assay with HL-60(TB) leukemia, 16.6 µM.

In the case of `S=c1nc2[nH]ncc2c(N/N=C/c2ccccc2)[nH]1`, the GI50 was 93.8 µM in the assay on U251 CNS; 87.9 µM in the assay on HCT-116 colon; more than 100 µM in the assay with SNB-75 CNS; more than 100 µM in the assay with SK-MEL-28 melanoma; more than 100 µM with SF-295 CNS; more than 100 µM in the assay on HOP-92 NSCLC. The GI50 with IGROV1 ovarian is 45.4 µM; in the assay on COLO 205 colon, more than 100 µM; in the assay with HL-60(TB) leukemia, more than 100 µM; in the assay with HOP-62 NSCLC, more than 100 µM. Also, the TGI with U251 CNS, in the assay with HCT-116 colon, in the assay on SNB-75 CNS, with SK-MEL-28 melanoma, with SF-295 CNS and with HOP-92 NSCLC was more than 100 µM each time. Also, the TGI in the assay with IGROV1 ovarian, with COLO 205 colon, in the assay on HL-60(TB) leukemia and with HOP-62 NSCLC was more than 100 µM throughout.
